In patent publication US20260130395A1, “Water Dispersible Botanical Compositions” (Aquila Black Limited, priority 2021, published 2026):

Legend:
[1] = Stability of cannabinoid entourage and Vitamin E components of the powder concentrate by LCMSMS; type: physicochemical; conditions: powder stored at 21-25° C.
Protocol: At each time period, 0.05 g of powder was dissolved in 10 ml-15 of ethanol, diluted to fall within the analytical range, and injected into the LCMSMS for analysis.

[2] = Stability of cannabinoid compounds and Vitamin E components in Beverage 2 (AB Red) by LCMSMS; type: physicochemical

Cc1c(C)c2c(c(C)c1OC(=O)CCC(=O)O)CC[C@@](C)(CCC[C@H](C)CCC[C@H](C)CCCC(C)C)O2 [α-Tocopheryl succinate]
Stability of Vitamin Es in Powder Concentrate ([1]; 0 days): 1.82 mg/g powder
Stability of Vitamin Es in Powder Concentrate ([1]; 1 days): 1.81 mg/g powder
Stability of Vitamin Es in Powder Concentrate ([1]; 2 days): 1.81 mg/g powder
Stability of Vitamin Es in Powder Concentrate ([1]; 3 days): 1.81 mg/g powder
Stability of Vitamin Es in Powder Concentrate ([1]; 5 days): 1.83 mg/g powder
Stability of Vitamin Es in Powder Concentrate ([1]; 8 days): 1.90 mg/g powder
Stability of Vitamin Es in Powder Concentrate ([1]; 9 days): 1.89 mg/g powder
Stability of Vitamin Es in Powder Concentrate ([1]; 10 days): 1.87 mg/g powder
Stability of Vitamin Es in Powder Concentrate ([1]; 11 days): 1.89 mg/g powder
Stability of Vitamin Es in Powder Concentrate ([1]; 12 days): 1.87 mg/g powder
Stability of Vitamin Es in Powder Concentrate ([1]; 15 days): 1.87 mg/g powder
Stability of Vitamin Es in Powder Concentrate ([1]; 16 days): 1.83 mg/g powder
Stability of Vitamin Es in Powder Concentrate ([1]; 17 days): 1.88 mg/g powder
Stability of Vitamin Es in Powder Concentrate ([1]; 18 days): 1.77 mg/g powder
Stability of Vitamin Es in Powder Concentrate ([1]; 19 days): 1.85 mg/g powder
Stability of Vitamin Es in Powder Concentrate ([1]; 22 days): 1.78 mg/g powder
Stability of Vitamin Es in Powder Concentrate ([1]; 23 days): 1.80 mg/g powder
Stability of Vitamin Es in Powder Concentrate ([1]; 24 days): 1.90 mg/g powder
Stability of Vitamin Es in Powder Concentrate ([1]; 25 days): 1.90 mg/g powder
Stability of Vitamin Es in Powder Concentrate ([1]; 26 days): 1.76 mg/g powder
Stability of Vitamin Es in Powder Concentrate ([1]; 29 days): 1.87 mg/g powder
Stability of Vitamin Es in Powder Concentrate ([1]; 30 days): 1.80 mg/g powder
Stability of Vitamin Es in Powder Concentrate ([1]; 60 days): 1.77 mg/g powder
Stability of Vitamin Es in Powder Concentrate ([1]; 90 days): 1.83 mg/g powder
Stability of Vitamin Es in Powder Concentrate ([1]; 120 days): 1.83 mg/g powder
Stability of Vitamin Es in Powder Concentrate ([1]; 150 days): 1.89 mg/g powder
Stability of Vitamin Es in Powder Concentrate ([1]; 180 days): 1.77 mg/g powder
Stability of Vitamin Es in Powder Concentrate ([1]; 210 days): 1.80 mg/g powder
Stability of Vitamin Es in Powder Concentrate ([1]; 240 days): 1.84 mg/g powder
Stability of Vitamin Es in Powder Concentrate ([1]; 270 days): 1.87 mg/g powder
Stability of Vitamin Es in Powder Concentrate ([1]; 300 days): 1.84 mg/g powder
Stability of Vitamin Es in Powder Concentrate ([1]; 330 days): 1.83 mg/g powder
Stability of Vitamin Es in Powder Concentrate ([1]; 360 days): 1.79 mg/g powder
Stability of Vitamin Es in Powder Concentrate ([1]; 390 days): 1.87 mg/g powder
Stability of Vitamin Es in Powder Concentrate ([1]; 420 days): 1.82 mg/g powder
Stability of Vitamin Es in Powder Concentrate ([1]; 450 days): 1.80 mg/g powder
Stability of Vitamin Es in Powder Concentrate ([1]; 480 days): 1.76 mg/g powder
Stability of Vitamin Es in Powder Concentrate ([1]; 510 days): 1.76 mg/g powder
Stability of Vitamin Es in Powder Concentrate ([1]; 540 days): 1.80 mg/g powder
Stability of Vitamin Es in Powder Concentrate ([1]; 570 days): 1.77 mg/g powder
Stability of Vitamin Es in AB Red ([2]; stored at 8° C., 0 days): 12.5 µg/mL
Stability of Vitamin Es in AB Red ([2]; stored at 8° C., 1 days): 11.7 µg/mL
Stability of Vitamin Es in AB Red ([2]; stored at 8° C., 2 days): 11.7 µg/mL
Stability of Vitamin Es in AB Red ([2]; stored at 8° C., 3 days): 11.7 µg/mL
Stability of Vitamin Es in AB Red ([2]; stored at 8° C., 5 days): 11.5 µg/mL
Stability of Vitamin Es in AB Red ([2]; stored at 8° C., 8 days): 12.6 µg/mL
Stability of Vitamin Es in AB Red ([2]; stored at 8° C., 9 days): 11.8 µg/mL
Stability of Vitamin Es in AB Red ([2]; stored at 8° C., 10 days): 12.6 µg/mL
Stability of Vitamin Es in AB Red ([2]; stored at 8° C., 11 days): 12.1 µg/mL
Stability of Vitamin Es in AB Red ([2]; stored at 8° C., 12 days): 12.7 µg/mL
Stability of Vitamin Es in AB Red ([2]; stored at 8° C., 15 days): 12.5 µg/mL
Stability of Vitamin Es in AB Red ([2]; stored at 8° C., 16 days): 11.5 µg/mL
Stability of Vitamin Es in AB Red ([2]; stored at 8° C., 17 days): 12.4 µg/mL
Stability of Vitamin Es in AB Red ([2]; stored at 8° C., 18 days): 11.9 µg/mL
Stability of Vitamin Es in AB Red ([2]; stored at 8° C., 19 days): 11.7 µg/mL
Stability of Vitamin Es in AB Red ([2]; stored at 8° C., 22 days): 11.9 µg/mL
Stability of Vitamin Es in AB Red ([2]; stored at 8° C., 23 days): 12.0 µg/mL
Stability of Vitamin Es in AB Red ([2]; stored at 8° C., 24 days): 12.2 µg/mL
Stability of Vitamin Es in AB Red ([2]; stored at 8° C., 25 days): 12.0 µg/mL
Stability of Vitamin Es in AB Red ([2]; stored at 8° C., 26 days): 12.5 µg/mL
Stability of Vitamin Es in AB Red ([2]; stored at 8° C., 29 days): 11.6 µg/mL
Stability of Vitamin Es in AB Red ([2]; stored at 8° C., 30 days): 12.4 µg/mL
Stability of Vitamin Es in AB Red ([2]; stored at 8° C., 60 days): 11.4 µg/mL
Stability of Vitamin Es in AB Red ([2]; stored at 8° C., 90 days): 11.5 µg/mL
Stability of Vitamin Es in AB Red ([2]; stored at 8° C., 120 days): 12.2 µg/mL
Stability of Vitamin Es in AB Red ([2]; stored at 8° C., 150 days): 11.5 µg/mL
Stability of Vitamin Es in AB Red ([2]; stored at 8° C., 180 days): 11.4 µg/mL
Stability of Vitamin Es in AB Red ([2]; stored at 8° C., 210 days): 11.4 µg/mL
Stability of Vitamin Es in AB Red ([2]; stored at 8° C., 240 days): 11.6 µg/mL
Stability of Vitamin Es in AB Red ([2]; stored at 8° C., 270 days): 11.5 µg/mL
Stability of Vitamin Es in AB Red ([2]; stored at 8° C., 300 days): 11.2 µg/mL
Stability of Vitamin Es in AB Red ([2]; stored at 8° C., 330 days): 11.7 µg/mL
Stability of Vitamin Es in AB Red ([2]; stored at 8° C., 360 days): 11.3 µg/mL
Stability of Vitamin Es in AB Red ([2]; stored at 8° C., 390 days): 11.2 µg/mL
Stability of Vitamin Es in AB Red ([2]; stored at 8° C., 420 days): 11.0 µg/mL
Stability of Vitamin Es in AB Red ([2]; stored at 8° C., 450 days): 11.2 µg/mL
Stability of Vitamin Es in AB Red ([2]; stored at 8° C., 480 days): 10.9 µg/mL
Stability of Vitamin Es in AB Red ([2]; stored at 8° C., 510 days): 10.8 µg/mL
Stability of Vitamin Es in AB Red ([2]; stored at 8° C., 540 days): 10.9 µg/mL
Stability of Vitamin Es in AB Red ([2]; stored at 8° C., 570 days): 10.6 µg/mL
Stability of Vitamin Es in AB Red ([2]; stored at 21-25° C., 0 days): 12.5 µg/mL
Stability of Vitamin Es in AB Red ([2]; stored at 21-25° C., 1 days): 12.5 µg/mL
Stability of Vitamin Es in AB Red ([2]; stored at 21-25° C., 2 days): 12.0 µg/mL
Stability of Vitamin Es in AB Red ([2]; stored at 21-25° C., 3 days): 11.9 µg/mL
Stability of Vitamin Es in AB Red ([2]; stored at 21-25° C., 5 days): 11.9 µg/mL
Stability of Vitamin Es in AB Red ([2]; stored at 21-25° C., 8 days): 12.0 µg/mL
Stability of Vitamin Es in AB Red ([2]; stored at 21-25° C., 9 days): 11.7 µg/mL
Stability of Vitamin Es in AB Red ([2]; stored at 21-25° C., 10 days): 12.0 µg/mL
Stability of Vitamin Es in AB Red ([2]; stored at 21-25° C., 11 days): 12.0 µg/mL
Stability of Vitamin Es in AB Red ([2]; stored at 21-25° C., 12 days): 12.4 µg/mL
Stability of Vitamin Es in AB Red ([2]; stored at 21-25° C., 15 days): 11.6 µg/mL
Stability of Vitamin Es in AB Red ([2]; stored at 21-25° C., 16 days): 11.6 µg/mL
Stability of Vitamin Es in AB Red ([2]; stored at 21-25° C., 17 days): 12.6 µg/mL
Stability of Vitamin Es in AB Red ([2]; stored at 21-25° C., 18 days): 12.1 µg/mL
Stability of Vitamin Es in AB Red ([2]; stored at 21-25° C., 19 days): 11.9 µg/mL
Stability of Vitamin Es in AB Red ([2]; stored at 21-25° C., 22 days): 11.6 µg/mL
Stability of Vitamin Es in AB Red ([2]; stored at 21-25° C., 23 days): 12.7 µg/mL
Stability of Vitamin Es in AB Red ([2]; stored at 21-25° C., 24 days): 12.4 µg/mL
Stability of Vitamin Es in AB Red ([2]; stored at 21-25° C., 25 days): 11.9 µg/mL
Stability of Vitamin Es in AB Red ([2]; stored at 21-25° C., 26 days): 12.1 µg/mL
Stability of Vitamin Es in AB Red ([2]; stored at 21-25° C., 29 days): 12.4 µg/mL
Stability of Vitamin Es in AB Red ([2]; stored at 21-25° C., 30 days): 12.1 µg/mL
Stability of Vitamin Es in AB Red ([2]; stored at 21-25° C., 60 days): 11.7 µg/mL
Stability of Vitamin Es in AB Red ([2]; stored at 21-25° C., 90 days): 11.6 µg/mL
Stability of Vitamin Es in AB Red ([2]; stored at 21-25° C., 120 days): 11.5 µg/mL
Stability of Vitamin Es in AB Red ([2]; stored at 21-25° C., 150 days): 11.4 µg/mL
Stability of Vitamin Es in AB Red ([2]; stored at 21-25° C., 180 days): 12.3 µg/mL
Stability of Vitamin Es in AB Red ([2]; stored at 21-25° C., 210 days): 11.6 µg/mL
Stability of Vitamin Es in AB Red ([2]; stored at 21-25° C., 240 days): 11.6 µg/mL
Stability of Vitamin Es in AB Red ([2]; stored at 21-25° C., 270 days): 11.0 µg/mL
Stability of Vitamin Es in AB Red ([2]; stored at 21-25° C., 300 days): 11.4 µg/mL
Stability of Vitamin Es in AB Red ([2]; stored at 21-25° C., 330 days): 11.4 µg/mL
Stability of Vitamin Es in AB Red ([2]; stored at 21-25° C., 360 days): 11.1 µg/mL
Stability of Vitamin Es in AB Red ([2]; stored at 21-25° C., 390 days): 10.8 µg/mL
Stability of Vitamin Es in AB Red ([2]; stored at 21-25° C., 420 days): 11.0 µg/mL
Stability of Vitamin Es in AB Red ([2]; stored at 21-25° C., 450 days): 11.2 µg/mL
Stability of Vitamin Es in AB Red ([2]; stored at 21-25° C., 480 days): 10.4 µg/mL
Stability of Vitamin Es in AB Red ([2]; stored at 21-25° C., 510 days): 10.6 µg/mL
Stability of Vitamin Es in AB Red ([2]; stored at 21-25° C., 540 days): 10.3 µg/mL
Stability of Vitamin Es in AB Red ([2]; stored at 21-25° C., 570 days): 10.6 µg/mL
